# Patent US20250235476A1, “METHODS AND COMPOSITIONS THAT ARE ALTERNATIVES TO ANTIBIOTICS” (priority 2022, published 2025)
# System: non-specific upper respiratory infection (URI)
# Experiment: Randomized double-blind placebo-controlled clinical trial: Days To Recovery (DTR)
# Format: in vivo, human
# Conditions: added to EZC during acute phase of illness
# Procedure: Methods: A total of 360 patients across the United States were enrolled and randomized in a double-blind manner across two intervention groups, EZC, EZCD, and one placebo group. The study was conducted utilizing a smartphone-based app to screen, enroll and capture study data of the participants. Once a study participant reported the first symptoms of a URI, they were advised to take the intervention as directed and complete the daily symptom survey score until their symptoms resolved.
# A total of 360 individuals, male or female over 18 years old, were enrolled by a third-party clinical research organization (CRO), to participate in the study. […] The placebo was composed of rice concentrate.
# The study was conducted with the CRO's technology platform utilized to screen, enroll and capture study data of the participants.
# Once a study participant reported the first symptoms of a URI, they were advised to take the intervention (i.e., placebo, EZC, or EZCD) taper dosed over a five-day period.
# DTR is a metric that measures the total number of days in which a patient is experiencing symptoms of an illness while taking the intervention or placebo. DTR also directly lends itself for use in a log-rank analysis, which is used to compute statistical significance.
# The primary limitation of DTR arises from the heterogeneous nature of the illness and the patient's unique recovery. […]
substance,measurement,value
vitamin D,effect of addition of vitamin D on illness duration or symptom severity,neither benefited nor harmed
